In PubChem BioAssay (NCI):
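Cells were grown in 96-well plates and exposed to each compound for 48 hours at five concentrations; endpoints were interpolated linearly between bracketing concentrations, or set to the highest concentration if not reached. GI50 marks 50% less growth. At the TGI there is no net growth.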

What was measured:
Experiment in all cases: NCI tumour cell line growth inhibition, 48 h
[1] = tested on: HCT-15 colon
[2] = tested on: SK-OV-3 ovarian
[3] = tested on: LOX IMVI melanoma
[4] = tested on: SK-MEL-2 melanoma
[5] = tested on: EKVX NSCLC
[6] = tested on: HOP-92 NSCLC
[7] = tested on: SN12C renal
[8] = tested on: NCI-H460 lung
[9] = tested on: UACC-257 melanoma
[10] = tested on: SF-268 CNS
[11] = tested on: ACHN renal
[12] = tested on: NCI-H226 lung
[13] = tested on: HCC-2998 colon
[14] = tested on: A549 NSCLC
[15] = tested on: CAKI-1 renal
[16] = tested on: OVCAR-8 ovarian
[17] = tested on: 786-0 renal
[18] = tested on: KM12 colon
[19] = tested on: SF-295 CNS
[20] = tested on: RXF 393 renal
[21] = tested on: HOP-62 NSCLC
[22] = tested on: SR leukemia
[23] = tested on: MDA-MB-468 breast
[24] = tested on: OVCAR-4 ovarian
[25] = tested on: SK-MEL-5 melanoma
[26] = tested on: OVCAR-5 ovarian
[27] = tested on: UACC-62 melanoma
[28] = tested on: HL-60(TB) leukemia
[29] = tested on: CCRF-CEM leukemia
[30] = tested on: IGROV1 ovarian
[31] = tested on: DU-145 prostate
[32] = tested on: A498 renal
[33] = tested on: MALME-3M melanoma
[34] = tested on: SK-MEL-28 melanoma
[35] = tested on: TK-10 renal
[36] = tested on: SNB-19 CNS
[37] = tested on: SNB-75 CNS
[38] = tested on: SF-539 CNS
[39] = tested on: M14 melanoma
[40] = tested on: MCF7 breast
[41] = tested on: SW-620 colon
[42] = tested on: PC-3 prostate
[43] = tested on: K-562 leukemia
[44] = tested on: T-47D breast
[45] = tested on: HCT-116 colon
[46] = tested on: HS 578T breast
[47] = tested on: BT-549 breast
[48] = tested on: RPMI-8226 leukemia
[49] = tested on: MOLT-4 leukemia
[50] = tested on: UO-31 renal
[51] = tested on: MDA-MB-231 breast
[52] = tested on: COLO 205 colon
[53] = tested on: NCI-H23 lung
[54] = tested on: MDA-MB-435
[55] = tested on: HT29 colon
[56] = tested on: NCI-H522 lung
[57] = tested on: NCI/ADR-RES ovarian
[58] = tested on: U251 CNS
[59] = tested on: OVCAR-3 ovarian

COc1ccc(/C=C/C(=O)c2ccc(OC)c(S(N)(=O)=O)c2)c(C(F)(F)F)c1
GI50 [1]: 2.32 µM | TGI [1]: 6.72 µM | GI50 [2]: 15.5 µM | TGI [2]: 43 µM | GI50 [3]: 2.31 µM | TGI [3]: 6.97 µM | GI50 [4]: 3.78 µM | TGI [4]: 15.9 µM | GI50 [5]: 3.55 µM | TGI [5]: 16.1 µM | GI50 [6]: 11 µM | TGI [6]: 34.8 µM | GI50 [7]: 2.96 µM | TGI [7]: 11.4 µM | GI50 [8]: 2.03 µM | TGI [8]: 6.2 µM | GI50 [9]: 9.28 µM | TGI [9]: 21.9 µM | GI50 [10]: 3.35 µM | TGI [10]: 16.5 µM | GI50 [11]: 4.28 µM | TGI [11]: 15.7 µM | GI50 [12]: 2.11 µM | TGI [12]: 5.44 µM | GI50 [13]: 10.7 µM | TGI [13]: 24.2 µM | GI50 [14]: 2.99 µM | TGI [14]: 11.4 µM | GI50 [15]: 3.82 µM | TGI [15]: 14.6 µM | GI50 [16]: 2.34 µM | TGI [16]: 6.27 µM | GI50 [17]: 3.16 µM | TGI [17]: 14.4 µM | GI50 [18]: 3.89 µM | TGI [18]: 19 µM | GI50 [19]: 4.37 µM | TGI [19]: 22.5 µM | GI50 [20]: 2.79 µM | TGI [20]: 11.4 µM | GI50 [21]: 3.23 µM | TGI [21]: 14.4 µM | GI50 [22]: 3 µM | TGI [22]: 19.5 µM | GI50 [23]: 2.37 µM | TGI [23]: 12 µM | GI50 [24]: 3.47 µM | TGI [24]: 15.7 µM | GI50 [25]: 3.42 µM | TGI [25]: 15.1 µM | GI50 [26]: 2.21 µM | TGI [26]: 6.33 µM | GI50 [27]: 4.7 µM | TGI [27]: 18.1 µM | GI50 [28]: 4.7 µM | TGI [28]: 30.7 µM | GI50 [29]: 2.95 µM | TGI [29]: 9.7 µM | GI50 [30]: 3.98 µM | TGI [30]: 15.8 µM | GI50 [31]: 3.39 µM | TGI [31]: 12.8 µM | GI50 [32]: 18.1 µM | TGI [32]: 37.8 µM | GI50 [33]: 5.96 µM | TGI [33]: 20.6 µM | GI50 [34]: 11.6 µM | TGI [34]: 23.8 µM | GI50 [35]: 13.4 µM | TGI [35]: 29.9 µM | GI50 [36]: 3.95 µM | TGI [36]: 16.1 µM | GI50 [37]: 3.22 µM | TGI [37]: 15.4 µM | GI50 [38]: 1.8 µM | TGI [38]: 3.4 µM | GI50 [39]: 9.19 µM | TGI [39]: 25.2 µM | GI50 [40]: 2.58 µM | TGI [40]: 10.6 µM | GI50 [41]: 2.07 µM | TGI [41]: 6.19 µM | GI50 [42]: 4.57 µM | TGI [42]: 18.5 µM | GI50 [43]: 3.24 µM | TGI [43]: 12.6 µM | GI50 [44]: 4.06 µM | TGI [44]: 24.7 µM | GI50 [45]: 2.41 µM | TGI [45]: 6.14 µM | GI50 [46]: 2.84 µM | TGI [46]: 19.1 µM | GI50 [47]: 5.04 µM | TGI [47]: 16.4 µM | GI50 [48]: 3.48 µM | TGI [48]: > 100 µM | GI50 [49]: 2.81 µM | TGI [49]: 13.7 µM | GI50 [50]: 5.14 µM | TGI [50]: 18.4 µM | GI50 [51]: 2.37 µM | TGI [51]: 6.14 µM | GI50 [52]: 4.76 µM | TGI [52]: 28.9 µM | GI50 [53]: 3.4 µM | TGI [53]: 14.2 µM | GI50 [54]: 4.23 µM | TGI [54]: 19.6 µM | GI50 [55]: 3.2 µM | TGI [55]: 11.4 µM | GI50 [56]: 2.51 µM | TGI [56]: 14.3 µM | GI50 [57]: 2.61 µM | TGI [57]: 10.6 µM | GI50 [58]: 2.58 µM | TGI [58]: 7.32 µM | GI50 [59]: 2.89 µM | TGI [59]: 10.4 µM
